Measurements taken from US11773146B2, “Disruption of the WAVE3 protein complex for suppression of invasion and metastasis” (UNIVERSITY OF GEORGIA RESEARCH FOUNDATION, INC., priority 2015, dated 2023).
“Also recorded” adds a separate entry of the source. Bridges are numbered along the chain shown (N, C = ends). Where no end group is shown, it is not given here. [ ]: non-standard residue; d: D form. S5 = C=CCCC[C@](C)(N)C(=O)O

What was measured:
[1] = test system: WASF3; assay: IP analysis of WASF3 phosphorylation; format: cell-based; details: for WASF3 phosphorylation levels: MDA-MB-231 cells, same effect in PC3; for suppression of WASF3 phosphorylation compared with 17-AAG: comparison with HSP90 inhibitor 17-AAG
Protocol: (§1) Immunoprecipitation assays were carried out as described previously (Sossey-Alaoui, K., et al. J. Biol. Chem. 82:26257-26265 (2007)). Specially, to determine the physical interaction with individual peptides, MDA-MB-231 cells were pretreated with 10 μM biotin-labeled peptides for 24 hours and lysates were incubated with immobilized avidin resin overnight at 4° C. The pull down samples were subjected to SDS-PAGE followed by Western blot analysis.

[2] = test system: MDA-MB-231 and Hs578T cells; assay: Transwell invasion assay with RAC1 inhibitor; format: cell-based; details: dose-dependent treatment
Source text: (§2) MDA-MB-231, Hs578T and T47D breast cancer cell lines were obtained directly from American Type Culture Collection (Rockville, Md.). MDA-MB-231 and T47D and have been verified using SNP-CGH (Teng Y, et al. Int J Cancer 2011 129:2825-2835) for characteristic cytogenetic changes. The ATCC Cell Authentication Testing service confirmed the identity of Hs578T using STR DNA fingerprinting analysis. Standard cell culture, transient transfections, RT-PCR, western blotting, immunoprecipitation (IP), flow cytometry, Biotin-Avidin pulldown, lentiviral transduction, cell proliferation and Transwell invasion assays were carried out as described previously (Teng Y, et al. Int J Cancer 2011 129:2825-2835; Teng Y, et al. J Biol Chem 2012 287:10051-10059; Teng Y, et al. Carcinogenesis 2013 34:1994-1999).

[3] = test system: WASF3, NCKAP1 or RAC1; assay: Western blot of protein levels with RAC1 inhibitor; format: cell-based; details: MDA-MB-231 and Hs578T cells
Source text: as §2

[4] = test system: MDA-MB-231 cells overexpressing NCKAP1; assay: Transwell invasion assay in cells overexpressing NCKAP1; format: cell-based; details: parental cells with empty vector and cells overexpressing NCKAP1
Source text: as §2
Lentiviral pCDH-CMV-MCS-EF1-PURO-HA-WASF3 (pCDH-HA-WASF3) was generated as described previously (Teng Y, et al. Carcinogenesis 2013 34:1994-1999). To construct the HA-NCKAP1 overexpression vector, the full-length human NCKAP1 was amplified from the template NCKAP1 cDNA clone (OriGene, Rockville, Md.) and was inserted into pCDHCMV-MCS-EF1-GFP lentiviral vector (System Biosciences, Mountain View, Calif.) as described previously (Teng Y, et al. Oncogene 2014 33:203-211). […]

[5] = test system: MDA-MB-231 cells; assay: Transwell invasion assay (WANT peptides); format: cell-based; details: for invasion potential: final concentration of 10 μM
Source text: There are currently no small molecules that target WASF3 function directly, but targeting the WRC may provide a means of suppressing invasion.

[6] = target: T1, CYFIP1 (Homo sapiens, UniProt Q7L576); assay: Avidin-biotin pull down with biotinylated stapled peptides; format: binding; details: biotinylated peptide 10 μM, MDA-MB-231 cells
T1 construct: endogenous in cells; host or cells: MDA-MB-231
Protocol: as §1
To determine whether the SPs formed a complex with WASF3 within the cells, MDA-MB-231 cells were exposed to biotinylated WAHM1 and WAHM2 for 6 hours, after which the cells were lysed and pull down assays were performed using avidin-coated beads.

[7] = target: T2, WASF3-CYFIP1 complex (Homo sapiens, UniProt Q7L576); assay: IP of WASF3: presence of CYFIP1 in the immunocomplex; format: cell-based; details: MDA-MB-231 cells treated with the SPs
T2 construct: endogenous in cells; host or cells: MDA-MB-231
Protocol: as §1

[8] = test system: WASF3; assay: Western blot of WASF3 protein levels after WAHM treatment; format: cell-based; details: for WASF3 levels in serum-starved cells: MDA-MB-231 and PC3 cells starved overnight, then treated for 4 hours; for intracellular levels of either WASF3 or CYFIP1: MDA-MB-231 cells; for WASF3 protein levels: MDA-MB-231 cells in serum, 2 to 24 hours
Protocol: (§3) Hs578T, MDA-MB-231, DU145 and PC3 cells were purchased from the American Type Culture Collection (ATCC) and maintained according to the supplier's instructions. Lentiviral transduction, cell proliferation assays, wound healing assays, Matrigel invasion assays, Western blotting, flow cytometry and confocal image analysis were carried out as described previously (Teng, Y., et al. Br. J. Cancer 103:1066-1075 (2010); Teng, Y., et al. Int. J. Cancer 129:2825-2835 (2011); Teng, Y., et al. Oncogene 33:203-211 (2014); Teng, Y., et al. J. Biol. Chem. 287:10051-10059 (2012); Teng, Y., et al. Carcinogenesis […] (2013); Teng, Y. et al. Oncogene Mar 30 (2015)).

[9] = test system: MDA-MB-231 and PC3 cells; assay: MTS cell proliferation assay; format: cell-based; details: 10 μM over 24 hours
Protocol: as §3

[10] = test system: MDA-MB-231 and PC3 cells; assay: Phalloidin staining and quantitation of filamentous actin; format: cell-based; details: 24 hours; for actin stress fibers (phalloidin staining): 10 μM; for fluorescence intensity of phalloidin stained cells: versus DMSO or scrambled peptides
Protocol: MDA-MB-231 and PC3 cells were seeded (10,000 cells per well) on slides with the Nunc™ Lab-Tek™ II Chamber Slide™ System (Thermo Fisher Scientific) in complete medium overnight and incubated with 10 μM WAHM or scrambled peptides for 24 hours. Cells were then fixed with 3.7% formaldehyde for 15 min and permeabilized with 0.1% Triton X-100 for 10 min and incubated with Texas-red phalloidin (Life technologies) for an additional 30 min to stain actin filaments. Cells were imaged using a Zeiss LSM 410 confocal microscope equipped with ×63 (1.4 numerical aperture) oil objective (Carl Zeiss) as previously described8. To quantitate the filamentous actin, cells were seeded at 2000 cells per well in a 96 well plate and treated with […] or scrambled peptides for 24 hours. Cells were then stained with phalloidin as described above, followed by extensive washings. Phallodin was solubilized with methanol and the supernatant was transferred to a clear-bottom black plate, and the fluorescence was determined using Infinite® M1000 PRO (Tecan). A parallel set of cells was used to determine cell number using the CellTiter-Glo® Luminescent Cell Viability kit from Promega (Madison), according to the manufacturer's parameters. Data from three independent experiments were expressed as mean relative fluorescence units per cell SEM.

[11] = test system: MDA-MB-231 and PC3 cells; assay: Scratch wound assay; format: cell-based; details: breast and prostate cell lines, versus DMSO and scrambled peptide
Protocol: as §3

[12] = test system: MDA-MB-231 and PC3 cells; assay: Transwell invasion analysis (WAHM peptides); format: cell-based; details: breast and prostate cells
Protocol: as §3

[13] = test system: KISS1; assay: Western blot of KISS1 levels; format: cell-based; details: MDA-MB-231 cells, compared with scrambled peptides
Protocol: as §3

[14] = test system: MMP-9; assay: MMP-9 secretion in culture supernatant by ELISA; format: cell-based, Human; details: MDA-MB-231 and PC3 cells, 24 hours, compared with scrambled controls
Protocol: After incubation with WAHM or scrambled peptides for 24 hours, MDA-MB-231 and PC3 cell supernatants were recovered and centrifuged at 1000 g at 4° C. for 20 min. MMP-9 levels in supernatants were measured using the Human MMP-9 Quantikine® ELISA kit (R&D Systems) and microplate reader at 450 nm.

T1 sequence (Q7L576 whole entry): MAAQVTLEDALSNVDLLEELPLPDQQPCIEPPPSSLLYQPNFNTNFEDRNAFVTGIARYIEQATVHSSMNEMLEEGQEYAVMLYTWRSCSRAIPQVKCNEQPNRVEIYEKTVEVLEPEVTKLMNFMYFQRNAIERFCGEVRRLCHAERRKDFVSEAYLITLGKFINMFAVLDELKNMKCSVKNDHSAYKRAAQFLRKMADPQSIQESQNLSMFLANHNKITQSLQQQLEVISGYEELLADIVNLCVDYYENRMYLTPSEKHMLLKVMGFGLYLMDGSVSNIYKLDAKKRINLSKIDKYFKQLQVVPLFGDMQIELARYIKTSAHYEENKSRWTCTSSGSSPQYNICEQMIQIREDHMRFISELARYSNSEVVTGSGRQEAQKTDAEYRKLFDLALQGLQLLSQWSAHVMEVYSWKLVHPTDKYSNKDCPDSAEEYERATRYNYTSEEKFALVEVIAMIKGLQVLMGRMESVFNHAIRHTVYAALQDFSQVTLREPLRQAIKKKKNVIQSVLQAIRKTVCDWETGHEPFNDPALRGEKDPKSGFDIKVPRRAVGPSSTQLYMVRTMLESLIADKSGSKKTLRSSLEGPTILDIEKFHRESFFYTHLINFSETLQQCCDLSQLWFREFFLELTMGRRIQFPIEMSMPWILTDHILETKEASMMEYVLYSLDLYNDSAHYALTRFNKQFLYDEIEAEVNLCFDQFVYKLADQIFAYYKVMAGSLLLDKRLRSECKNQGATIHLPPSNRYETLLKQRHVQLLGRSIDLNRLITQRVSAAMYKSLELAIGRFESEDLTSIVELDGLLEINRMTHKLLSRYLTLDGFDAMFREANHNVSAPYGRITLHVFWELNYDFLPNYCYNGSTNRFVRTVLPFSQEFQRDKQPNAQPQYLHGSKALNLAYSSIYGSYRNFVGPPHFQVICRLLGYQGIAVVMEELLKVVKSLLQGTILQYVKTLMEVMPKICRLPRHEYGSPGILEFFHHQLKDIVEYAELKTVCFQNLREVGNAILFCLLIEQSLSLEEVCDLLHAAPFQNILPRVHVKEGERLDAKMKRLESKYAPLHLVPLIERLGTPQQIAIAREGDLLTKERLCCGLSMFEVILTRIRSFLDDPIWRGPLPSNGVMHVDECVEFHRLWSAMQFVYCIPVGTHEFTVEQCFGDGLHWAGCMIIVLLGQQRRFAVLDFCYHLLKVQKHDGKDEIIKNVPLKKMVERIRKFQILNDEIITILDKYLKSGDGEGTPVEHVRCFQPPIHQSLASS
T2 sequence (Q7L576 whole entry): as above
T2 sequence (Q9Y2A7 2-1128 partner limits assumed): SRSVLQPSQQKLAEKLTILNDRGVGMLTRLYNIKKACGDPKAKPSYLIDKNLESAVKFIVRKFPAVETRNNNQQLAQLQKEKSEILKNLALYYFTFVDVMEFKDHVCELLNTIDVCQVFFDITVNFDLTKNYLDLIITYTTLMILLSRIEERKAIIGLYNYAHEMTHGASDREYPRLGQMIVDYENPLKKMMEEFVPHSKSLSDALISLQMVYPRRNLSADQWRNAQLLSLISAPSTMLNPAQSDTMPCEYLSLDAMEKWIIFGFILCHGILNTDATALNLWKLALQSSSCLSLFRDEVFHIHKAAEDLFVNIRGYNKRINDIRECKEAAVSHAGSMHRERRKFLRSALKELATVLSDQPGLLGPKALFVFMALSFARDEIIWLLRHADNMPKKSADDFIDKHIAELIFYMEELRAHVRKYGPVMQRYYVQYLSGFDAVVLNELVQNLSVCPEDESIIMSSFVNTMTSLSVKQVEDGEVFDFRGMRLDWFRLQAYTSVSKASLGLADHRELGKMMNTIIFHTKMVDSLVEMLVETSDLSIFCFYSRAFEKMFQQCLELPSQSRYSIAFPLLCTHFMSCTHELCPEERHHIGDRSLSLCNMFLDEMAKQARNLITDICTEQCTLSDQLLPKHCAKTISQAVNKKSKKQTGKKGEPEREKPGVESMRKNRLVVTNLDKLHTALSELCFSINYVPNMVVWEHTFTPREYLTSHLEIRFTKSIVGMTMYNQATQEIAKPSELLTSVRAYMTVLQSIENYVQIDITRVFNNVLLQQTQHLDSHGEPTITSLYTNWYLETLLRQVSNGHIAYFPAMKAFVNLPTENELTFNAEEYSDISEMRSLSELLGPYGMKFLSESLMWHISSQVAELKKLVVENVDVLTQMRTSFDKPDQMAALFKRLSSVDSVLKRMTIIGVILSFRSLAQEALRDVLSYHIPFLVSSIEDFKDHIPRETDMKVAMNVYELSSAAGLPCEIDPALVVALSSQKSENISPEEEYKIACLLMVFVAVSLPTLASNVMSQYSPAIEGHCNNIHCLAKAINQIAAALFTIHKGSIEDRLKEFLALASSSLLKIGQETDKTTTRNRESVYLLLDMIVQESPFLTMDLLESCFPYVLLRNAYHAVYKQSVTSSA

With `C=CCNC1=C2C[C@@H](C)C[C@H](OC)[C@H](O)[C@@H](C)/C=C(\C)[C@H](OC(N)=O)[C@@H](OC)/C=C\C=C(/C)C(=O)NC(=CC1=O)C2=O` [17-AAG, reference compound] the WASF3 phosphorylation levels [1] was “reduced WASF3 phosphoactivation”.

For `CCN(CC)CCCC(C)Nc1nc(C)cc(Nc2ccc3nc(C)cc(N)c3c2)n1` (stereo not drawn) [NSC23766], the invasion [2] was “dose-dependent reduction in invasion potential”, the “protein levels of either WASF3, NCKAP1 or RAC1” value [3] was “without affecting; also recorded: does not affect protein levels” and the “invasion potential in cells expressing NCKAP1” value [4] was “significant reduction in invasion”. The “invasion potential in cells expressing NCKAP1” value ([4]; listed as NSC23677) was “significant reduction of invasion potential”.

In the case of “ELXSSIXDFKDHK (EL[S5]SSI[S5]DFKDHK-NH2; staple 3-7) [WANT2, WASF3-NCKAP1 Target stapled peptide; X is (S)-2-(4′-pentenyl)alanine]”, the invasion potential [5] is reported as “no significant effect on invasion potential”.

“KHCAXTISXAVNK (KHCA[S5]TIS[S5]AVNK-NH2; staple 5-9) [WANT1, WASF3-NCKAP1 Target stapled peptide; X is (S)-2-(4′-pentenyl)alanine]” was tested, and the invasion potential [5] was “no significant effect on invasion potential”.

With “LEK*TNS*LAKIIRQL (LEK[S5]TNS[S5]LAKIIRQL-NH2; staple 4-8; not fully specified (N-terminus)) [WAHM1, WASF Helix Mimic stapled peptide; * is (S)-2-(4′-pentenyl)alanine that forms the staple]” the “CYFIP1 in the pull down complex” value [6] was “CYFIP1 was present in the pull down complex; also recorded: CYFIP1 was shown to interact”, the “CYFIP1 in WASF3 immunocomplex” value [7] was “CYFIP1 was not present in the immunocomplex” and the “WASF3 levels in serum-starved cells” value [8] was “reduced below detectable levels”. The “intracellular levels of either WASF3 or CYFIP1” value [8] was “did not affect”, the WASF3 protein levels [8] was “WASF3 protein levels were not affected; also recorded: without a reduction in WASF3 protein levels; also recorded: no reduction in WASF3 protein levels” and the “cell proliferation (MTS)” value [9] was “no significant difference in cell proliferation”. For the same compound, the “actin stress fibers (phalloidin staining)” value [10] was “increase in both the number and thickness of the actin stress fibers”, the “fluorescence intensity of phalloidin stained cells” value [10] was “increased intensity” and the “migration potential / cell motility” value [11] was “reduced migration potential; also recorded: significant reduction in cell motility”. The “effect on invasion (in words)” value [12] was “significantly suppresses invasion”, the WASF3 phosphorylation levels [1] was “dramatic decrease in WASF3 phosphorylation levels; also recorded: reduction in WASF3 phosphorylation” and the “suppression of WASF3 phosphorylation compared with 17-AAG” value [1] was “more efficient”. For the same compound, the KISS1 protein levels [13] was “increased KISS1 levels; also recorded: KISS1 levels increase”, the “secreted MMP9 levels” value [14] was “remarkable reduction in secreted MMP9 levels; also recorded: significantly reduced MMP9 levels” and the “suppression of invasion, WAHM1 compared with WANT3” value [5] was “comparable suppression of invasion”.

In the case of “LEKKTN*TLA*IIRQL (LEKKTN[S5]TLA[S5]IIRQL-NH2; staple 7-11; not fully specified (N-terminus)) [WAHM2, WASF Helix Mimic stapled peptide; * is (S)-2-(4′-pentenyl)alanine that forms the staple]”, the “CYFIP1 in the pull down complex” value [6] is reported as “CYFIP1 was present in the pull down complex; also recorded: CYFIP1 was shown to interact”, the “CYFIP1 in WASF3 immunocomplex” value [7] is reported as “CYFIP1 was not present in the immunocomplex” and the “WASF3 levels in serum-starved cells” value [8] is reported as “reduced below detectable levels”. For the same compound, the “intracellular levels of either WASF3 or CYFIP1” value [8] was “did not affect”, the WASF3 protein levels [8] was “WASF3 protein levels were not affected; also recorded: without a reduction in WASF3 protein levels; also recorded: no reduction in WASF3 protein levels” and the “cell proliferation (MTS)” value [9] was “no significant difference in cell proliferation”. For the same compound, the “actin stress fibers (phalloidin staining)” value [10] was “increase in both the number and thickness of the actin stress fibers”, the “fluorescence intensity of phalloidin stained cells” value [10] was “increased intensity” and the “migration potential / cell motility” value [11] was “reduced migration potential; also recorded: significant reduction in cell motility”. For the same compound, the “effect on invasion (in words)” value [12] was “significantly suppresses invasion”, the WASF3 phosphorylation levels [1] was “dramatic decrease in WASF3 phosphorylation levels; also recorded: reduction in WASF3 phosphorylation” and the “suppression of WASF3 phosphorylation compared with 17-AAG” value [1] was “more efficient”. For the same compound, the KISS1 protein levels [13] was “increased KISS1 levels; also recorded: KISS1 levels increase” and the “secreted MMP9 levels” value [14] was “remarkable reduction in secreted MMP9 levels; also recorded: significantly reduced MMP9 levels”.
